Laboratory results reported in ChEMBL document CHEMBL6121059, “Small Molecule Modulators of AMP-Activated Protein Kinase (AMPK) Activity and Their Potential in Cancer Therapy” (J Med Chem, 2025).
Values belong to the compound of their own block, whether it stands above or below them.

Legend:
[1] = target: 5'-AMP-activated protein kinase catalytic subunit alpha-1 (Homo sapiens, UniProt Q13131); assay: Inhibition of AMPKalpha1 (unknown origin)
[2] = target: Serine/threonine-protein kinase N1 (Homo sapiens) (UniProt Q16512); assay: Activation of PRK1 (unknown origin) at 10 uM relative to control
[3] = target: T1, TGF-beta receptor type-1 (Homo sapiens) (UniProt P36897); assay: Inhibition of ALK5 (unknown origin) at 10 uM relative to control
T1 sequence (whole entry): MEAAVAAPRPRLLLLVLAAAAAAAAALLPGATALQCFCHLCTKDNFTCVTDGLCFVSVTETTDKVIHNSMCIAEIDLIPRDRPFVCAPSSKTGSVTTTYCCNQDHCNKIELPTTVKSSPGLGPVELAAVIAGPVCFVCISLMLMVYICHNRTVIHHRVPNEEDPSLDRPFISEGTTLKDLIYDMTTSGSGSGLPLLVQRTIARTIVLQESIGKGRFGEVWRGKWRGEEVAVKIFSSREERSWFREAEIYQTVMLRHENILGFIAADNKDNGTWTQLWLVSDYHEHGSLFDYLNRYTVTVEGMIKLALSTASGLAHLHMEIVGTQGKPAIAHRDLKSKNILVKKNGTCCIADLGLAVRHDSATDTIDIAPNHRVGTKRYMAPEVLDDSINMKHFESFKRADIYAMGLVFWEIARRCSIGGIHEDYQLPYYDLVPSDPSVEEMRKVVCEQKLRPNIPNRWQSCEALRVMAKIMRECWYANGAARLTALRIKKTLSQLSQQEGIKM

[4] = target: Epithelial discoidin domain-containing receptor 1 (Homo sapiens) (UniProt Q08345); assay: Inhibition of DDR1 (unknown origin) at 10 uM relative to control
[5] = target: Leucine-rich repeat serine/threonine-protein kinase 2 (Homo sapiens) (UniProt Q5S007); assay: Activation of LRRK2 (unknown origin) at 10 uM relative to control
Homo sapiens = species on record: Homo sapiens; assay: Inhibition of SRC (unknown origin) at 10 uM relative to control
[6] = target: Serine/threonine-protein kinase PAK 1 (Homo sapiens) (UniProt Q13153); assay: Activation of PAK1 (unknown origin) at 10 uM relative to control
IMR-32 = assay: Inhibition of cellular AMPK in human IMR-32 cells assessed as reduction in pACC1 levels in cell lysates by HTRF assay
[7] = Inhibition of full length GST-tagged human AMPKalpha2/beta1/gamma1 using HMRSAMSFAEPG biotinylated peptide as substrate in presence of 10 uM ATP by TR-FRET assay
LNCaP = assay: Inhibition of cellular AMPK in human LNCaP cells assessed as reduction in pACC1 levels in cell lysates by HTRF assay
[8] = Inhibition of full length GST-tagged human AMPKalpha2/beta1/gamma1 using HMRSAMSFAEPG biotinylated peptide as substrate in presence of 2 mM ATP by TR-FRET assay
VCaP = assay: Antiproliferative activity against human VCaP cells assessed as reduction in cell viability incubated for 3 days by cell-titer glo assay; type: functional, cell-based; details: 72 h
COLO 320 = assay: Inhibition of cellular AMPK in human COLO 320 cells assessed as reduction in pACC1 levels in cell lysates by HTRF assay
[9] = Binding affinity to AMPK (unknown origin) assessed as inhibition constant; set-up: species or system Homo sapiens
[10] = Inhibition of AMPK (unknown origin); set-up: species or system Homo sapiens

5'-AMP-activated protein kinase catalytic subunit alpha-1, sequence (Q13131 whole entry): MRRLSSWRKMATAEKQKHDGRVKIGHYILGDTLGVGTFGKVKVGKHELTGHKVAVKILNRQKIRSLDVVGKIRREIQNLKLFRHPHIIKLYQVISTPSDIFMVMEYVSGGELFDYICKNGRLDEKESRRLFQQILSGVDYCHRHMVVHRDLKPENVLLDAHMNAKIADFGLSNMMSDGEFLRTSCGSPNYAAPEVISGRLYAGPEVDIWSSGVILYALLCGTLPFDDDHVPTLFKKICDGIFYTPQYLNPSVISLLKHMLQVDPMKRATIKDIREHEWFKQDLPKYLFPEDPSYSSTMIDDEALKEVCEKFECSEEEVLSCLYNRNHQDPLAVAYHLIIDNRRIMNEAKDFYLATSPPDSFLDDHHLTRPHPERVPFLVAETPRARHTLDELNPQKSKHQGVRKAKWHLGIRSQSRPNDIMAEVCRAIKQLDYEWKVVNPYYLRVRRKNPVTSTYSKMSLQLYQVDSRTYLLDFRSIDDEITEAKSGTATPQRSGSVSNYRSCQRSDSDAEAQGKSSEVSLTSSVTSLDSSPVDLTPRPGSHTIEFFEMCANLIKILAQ
Epithelial discoidin domain-containing receptor 1 (Homo sapiens), sequence (Q08345 whole entry, the tested form may be a part): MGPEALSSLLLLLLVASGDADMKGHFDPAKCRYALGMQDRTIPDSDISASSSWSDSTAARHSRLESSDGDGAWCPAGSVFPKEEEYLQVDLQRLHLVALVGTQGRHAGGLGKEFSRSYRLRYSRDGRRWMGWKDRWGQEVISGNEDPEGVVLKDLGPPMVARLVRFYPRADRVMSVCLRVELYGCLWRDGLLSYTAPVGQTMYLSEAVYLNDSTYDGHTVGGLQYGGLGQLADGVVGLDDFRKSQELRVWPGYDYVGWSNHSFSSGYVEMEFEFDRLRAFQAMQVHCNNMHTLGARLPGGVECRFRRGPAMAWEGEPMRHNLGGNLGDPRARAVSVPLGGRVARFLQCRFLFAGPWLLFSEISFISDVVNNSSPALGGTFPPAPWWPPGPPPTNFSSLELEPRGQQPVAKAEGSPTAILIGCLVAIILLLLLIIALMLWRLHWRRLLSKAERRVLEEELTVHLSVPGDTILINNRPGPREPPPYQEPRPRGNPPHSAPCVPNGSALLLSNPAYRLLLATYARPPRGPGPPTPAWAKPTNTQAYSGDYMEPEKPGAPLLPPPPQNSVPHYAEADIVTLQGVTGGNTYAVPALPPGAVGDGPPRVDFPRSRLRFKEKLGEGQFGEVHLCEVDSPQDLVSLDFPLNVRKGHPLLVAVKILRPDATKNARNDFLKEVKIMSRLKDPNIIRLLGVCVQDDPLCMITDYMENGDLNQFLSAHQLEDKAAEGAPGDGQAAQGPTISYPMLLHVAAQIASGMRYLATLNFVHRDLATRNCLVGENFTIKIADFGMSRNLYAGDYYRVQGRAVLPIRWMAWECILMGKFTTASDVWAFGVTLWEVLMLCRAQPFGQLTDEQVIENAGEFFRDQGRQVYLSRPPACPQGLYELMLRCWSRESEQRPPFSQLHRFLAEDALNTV
Serine/threonine-protein kinase PAK 1 (Homo sapiens), sequence (Q13153 whole entry, looked up): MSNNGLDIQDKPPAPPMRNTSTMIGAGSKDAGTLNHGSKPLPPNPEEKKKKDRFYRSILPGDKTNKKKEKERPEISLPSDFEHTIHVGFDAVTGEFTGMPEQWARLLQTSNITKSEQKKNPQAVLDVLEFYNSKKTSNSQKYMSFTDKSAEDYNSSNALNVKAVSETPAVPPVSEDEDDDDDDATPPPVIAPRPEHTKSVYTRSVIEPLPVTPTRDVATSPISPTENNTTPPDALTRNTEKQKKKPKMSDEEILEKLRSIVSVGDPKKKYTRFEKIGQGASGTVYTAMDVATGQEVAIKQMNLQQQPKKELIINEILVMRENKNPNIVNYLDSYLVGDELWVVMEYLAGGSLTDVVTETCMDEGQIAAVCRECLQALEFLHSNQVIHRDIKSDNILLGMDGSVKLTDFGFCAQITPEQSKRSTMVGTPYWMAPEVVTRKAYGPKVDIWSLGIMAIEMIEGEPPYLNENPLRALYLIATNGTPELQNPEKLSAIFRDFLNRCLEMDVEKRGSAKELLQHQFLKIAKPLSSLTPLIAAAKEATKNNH
Serine/threonine-protein kinase N1 (Homo sapiens), sequence (Q16512 2-942 limits assumed): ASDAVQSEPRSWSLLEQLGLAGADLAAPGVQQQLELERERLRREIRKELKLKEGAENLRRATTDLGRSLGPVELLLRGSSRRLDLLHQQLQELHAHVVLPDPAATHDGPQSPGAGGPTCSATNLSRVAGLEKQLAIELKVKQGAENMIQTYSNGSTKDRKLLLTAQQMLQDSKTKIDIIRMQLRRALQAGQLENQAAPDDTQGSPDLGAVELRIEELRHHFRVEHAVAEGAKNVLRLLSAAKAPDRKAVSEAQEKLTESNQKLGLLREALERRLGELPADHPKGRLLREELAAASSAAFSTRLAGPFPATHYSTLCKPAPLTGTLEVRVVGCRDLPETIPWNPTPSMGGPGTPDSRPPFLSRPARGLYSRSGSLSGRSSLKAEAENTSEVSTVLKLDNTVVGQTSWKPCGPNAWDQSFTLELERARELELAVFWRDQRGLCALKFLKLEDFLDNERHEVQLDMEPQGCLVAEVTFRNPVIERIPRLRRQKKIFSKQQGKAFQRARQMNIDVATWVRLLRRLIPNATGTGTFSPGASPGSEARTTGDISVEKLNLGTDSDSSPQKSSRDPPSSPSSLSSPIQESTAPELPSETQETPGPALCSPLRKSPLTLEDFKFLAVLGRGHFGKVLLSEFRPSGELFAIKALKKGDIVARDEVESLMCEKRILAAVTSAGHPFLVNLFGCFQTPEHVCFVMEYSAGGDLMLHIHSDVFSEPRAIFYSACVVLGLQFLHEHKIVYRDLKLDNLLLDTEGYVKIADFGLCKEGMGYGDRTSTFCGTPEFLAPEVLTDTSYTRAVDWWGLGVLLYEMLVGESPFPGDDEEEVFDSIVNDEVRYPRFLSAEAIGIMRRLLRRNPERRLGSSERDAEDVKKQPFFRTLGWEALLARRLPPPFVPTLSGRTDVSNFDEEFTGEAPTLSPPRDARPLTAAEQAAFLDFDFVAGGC

Compound: CNC(=O)c1ccccc1Oc1nc(Nc2cc(OC)c(OC)c(OC)c2)ncc1Br
IC50 [1]: 400 nM

Compound: O=C(O)Cc1csc(Nc2ccc(C(F)(F)F)cc2)n1
activation [2]: 30% | inhibition [3]: > 50% | inhibition [4]: > 50% | activation [5]: 30% | inhibition (Homo sapiens): > 50% | activation [6]: 30%

Continued, values first:

IC50 (IMR-32): ~150 nM | IC50 [7]: 1.4 nM | IC50 (LNCaP): ~100 nM | IC50 [8]: 15 nM | IC50 (VCaP): ~100 nM | IC50 (COLO 320): ~400 nM
Compound: CCc1ccccc1C(=O)Nc1n[nH]c2c(C)c(F)c(C3C(C#N)=C(C)N(C)C(C)=C3C#N)cc12 [BAY-3827]

Ki [9]: 109 nM | IC50 [10]: 2380 nM
Compound: c1cc(-c2cnn3cc(-c4ccc(OCCN5CCCCC5)cc4)cnc23)ccn1 [DORSOMORPHIN]

IC50 [10]: 40 nM
Compound: CCN(CC)CCNC(=O)c1c(C)[nH]c(/C=C2\C(=O)Nc3ccc(F)cc32)c1C [SUNITINIB]
